Earlier results, collected in patent US5916587A, “Transdermal delivery matrix for piroxicam” (Sunkyong Industries Co., Ltd., priority 1992, dated 1999).

Tests used:
[1] = test system: prostaglandin biosynthesis
[2] = orally administered
[3] = oral use

SMILES | fold less active than piroxicam inhibiting prostaglandin synthesis ([1]; metabolite vs piroxicam) | potency as an inhibitor of prostaglandin biosynthesis in vitro ([1]; compared with indomethacin) | drug excreted in the urine unchanged [2] | metabolism [2] | side effects [3]
Nc1nc2cccc(-c3ccc(CN4CCS(=O)(=O)CC4)cc3)n2n1 [metabolite] | at least 1000 times | – | – | – | –
CN1C(C(=O)Nc2ccccn2)=C(O)c2ccccc2S1(=O)=O [Piroxicam, piroxicam] | – | about equal in potency to indomethacin | Less than 5% | metabolized at the first pass route | gastro-intestinal trouble, peptic ulcer
